Experimental data taken from patent US6780608B1, “Human type 3 ryanodine receptor protein and DNA molecules coding therefor” (priority 1997, dated 2004).
Entries after “also recorded” stand apart in the source; their conditions may differ.

How the values were obtained:
[1] = system: chimeric RyR from rabbit RyR2 and human RyR3; assay: Intracellular calcium signal (fluo-3) in dyspedic myotubes injected with chimeric human RyR3 cDNA; format: cell-based; conditions: 1 mM caffeine, local injection; dyspedic myotubes expressing chimeric human RyR3; n=5 out of 20 reacted
Source text: (§1) The cDNA insert was constructed from the following fragments: EcoRI(vector)/MroI(1232) obtained from IhBRR22, MroI(1232)/HindIII(2956) from IhBRR61, HindIII(2956)/BcII(3506) from IhBRR501, BcII(3506)/PmaCI(4750) from IhBRR51, PmaCI(4750)/PstI(7339) from IhBRR53, PstI(7339)/ClaI(9559) from IhBRR411, ClaI(9559)/SpeI(10569) from IhBRR79, SpeI(10569)/ApaI(11451) from IhBRR407, ApaI(11451)/EcoRI(11815) from IhBRR502, EcoRI(11815)/EcoRI(14861) from IhBRR91. The expression plasmid of the chimeric ryanodine receptor cDNA from human RyR3 and rabbit RyR2 was constructed as follows: the SalI(vector)/PmaCI(5038) fragment was rabbit RyR2 cDNA (Nakai, J. et al. FEBS Lett. 271 (1990), 169-177) and the PmaCI(4750)/NotI(vector) fragment from human RyR3-cDNA was ligated into the SalI/NotI cutting site of pCI-neo. Cultures of myotubes from RyR1-deficient (dyspedic) mice and cDNA injection are already known (Nakai, J. et al., Nature 380, (1996), 72-75). Changes in fluorescence (dimensionless random units) were measured after loading the myotubes with fluo-3 AM (Garcia, J., and Beam, K. G., J. Gen. Physiol. 103, (1994), 107-123). […] The washing solution used was normal Nager-Ringer solution of the following composition (mM): 145 NaCl, 5 KCl, 2 CaCl2, 1 MgCl2, 10 HEPES, pH 7.4 adjusted using NaOH. The temperature was 20-22° C.

[2] = system: non-injected dyspedic myotubes; assay: Intracellular calcium signal (fluo-3) in non-injected dyspedic myotubes; format: cell-based, mice; conditions: 1 mM caffeine, n=0 out of 20 reacted
Source text: as §1

[3] = system: U373 cells; assay: Intracellular calcium (aequorin luminescence) in U373 cells; format: cell-based, human; conditions: for increase in intracellular calcium after addition of ryanodine: ryanodine 100 mM as printed, U373 cells, n=2 out of 4 react, 2 out of 4 do not react
Procedure: (§2) The luminescence was determined using the method recently published (Maeda, A. et al., Anal. Biochem. 242, (1996), 58-66). To do this the cells (1×10^5 cells/vessel) were transferred into the solution of the calcium assay having the following composition (mM): 140 NaCl, 5 KCl, 1.5 MgCl2, 2.5 CaCl2, 5 glucose and 10 HEPES, pH 7.4 adjusted using NaOH, including […] of coelenterazine, the intermediate substrate of aequorine, and incubated for 6 hours at 37° C. The system for measuring luminescence consisted of the spectrofluorometer CAF-110 (Jasco) (Hakamata Y. et al., FEBS Lett. 352, (1994), 206-210), which is connected to a luminescence unit PL-03 (Jasco).
(§3) The total amount of aequorine activity was measured, after permeabilisation of the cells with digitonin, in a final concentration of […].

[4] = system: H4 cells; assay: Intracellular calcium (aequorin luminescence) in H4 cells; format: cell-based, human; conditions: H4 neuroglyoma cells
Procedure: as §2, §3

Compound	intracellular calcium signal as a reaction to caffeine [1]	intracellular calcium signal as a reaction to caffeine [2]	increase in intracellular calcium after addition of caffeine ([3]; caffeine final concentration 10 mM, U373 astrocytoma cells, n=7, listed as Caffeine)	increase in calcium after addition of caffeine ([4]; caffeine final concentration 10 mM)	increase in intracellular calcium after addition of ryanodine [3]	increase in intracellular calcium after addition of ryanodine ([3]; listed as Ryanodine)	increase in calcium after addition of ryanodine ([4]; ryanodine 100 mM [sic])
Cn1c(=O)c2c(ncn2C)n(C)c1=O [caffeine]	reacts	do not react; also recorded: no reaction whatsoever	no effect	not to caffeine			
ryanodine					reacted	triggers temporary calcium fluctuations	reacted
